What was measured:
rodents = conditions: in vivo
benign thyroid diseases = experiment: I-131 therapy of benign thyroid diseases, retrospective analysis; assay type: in vivo; conditions: 127 patients
Description: A retrospective analysis was carried out for patients with benign thyroid conditions who underwent single or double I-131 therapy for benign thyroid disease at our department between January 2009 and December 2021. The thyroid function status of the patients was also documented prior to discharge.

**Q.** For `CCCC(C)C1(CC)C(=O)NC(=O)NC1=O` (stereo not drawn) [Pentobarbital, pentobarbital], which “effect on glucose metabolism” value (rodents) is on record?
**A.** does not alter the blood glucose metabolism

**Q.** What about the “safety margin for rodent anaesthesia” value (rodents) of the same compound?
**A.** lower safety margin

**Q.** With `CC(C)c1cccc(C(C)C)c1O` [Propofol, propofol] as the compound, how does the “effect on glucose metabolism” value (rodents) read?
**A.** decreased cerebral glucose metabolism

**Q.** Which “patients who required retreatment as they remained hyperthyroid” value (benign thyroid diseases; after single RAI therapy, n = 33) does the source give for `[131IH]` [RAI] here?
**A.** 26%

**Q.** What about the “patients who responded to the single RAI therapy (euthyroid or hypothyroid)” value (benign thyroid diseases; empirical dose 10 mCi to 40 mCi, n = 94) of the same compound?
**A.** Seventy-four per cent

**Q.** And the “patients euthyroid on discharge” value (benign thyroid diseases; single or double I-131 therapy, n = 40)?
**A.** 31%

**Q.** And the “patients hypothyroid on discharge” value (benign thyroid diseases; single or double I-131 therapy, n = 83)?
**A.** 66%

**Q.** With `FC(F)OC(Cl)C(F)(F)F` (stereo not drawn) [isoflurane] as the compound, how does the “effect on glucose metabolism” value (rodents) read?
**A.** induced hypoglycaemia

**Q.** With `FCOC(C(F)(F)F)C(F)(F)F` [sevoflurane] as the compound, how does the “effect on glucose metabolism” value (rodents) read?
**A.** induced hypoglycaemia

From PMC12376232 (Journal of the Colleges of Medicine of South Africa, 2023)
